From patent US20240374607A1, “MEDICAMENT FOR PREVENTING AND/OR TREATING DRY EYE” (Santen Pharmaceutical Co., Ltd., priority 2021, published 2024)

Tests used:
[1] = test system: normal male cynomolgus monkeys; assay: Tear film break-up time (TBUT) after single ocular instillation, Tests 1 and 2; conditions: for Extension of TBUT: 1% (w/v) ophthalmic solution, single ocular instillation, FIG. 2
Description: TBUT measurement tests were conducted for 10 normal male cynomolgus monkeys by partial crossover design of 5 monkeys per group. The test animals were given general anesthesia by intramuscular injection with ketamine hydrochloride (Ketalar for intramuscular injection 500 mg (registered trademark), Daiichi Sankyo Company, Limited.), and then were let their eyes closed. Then, TBUT was measured before and at 15, 30, and 60 minutes after ocular instillation of a vehicle or each ophthalmic solution (20 μL/eye) to the right eye. Specifically, 1% fluorescein solution (2 μL/eye) was instilled, and the time right after opening of the eyelids until breaking of the fluorescein layer (tear film) on the cornea was measured three times under a slit lamp, followed by calculation of the average. (N=5 eyes)
TBUT was measured in a similar manner to the method of Test 1. (N=4 or 5 eyes)

[2] = test system: dry-eye model SD rat with exorbital lacrimal gland removed; assay: Quantity of tears by Schirmer strip in dry-eye model, Tests 3 and 4; format: in vivo; conditions: for Incremental difference in Schirmer's test at 0.5 hours after ocular instillation / Incremental difference in Schirmer's test at 8 hours after ocular instillation: 5 μL/eye, difference from vehicle-instilled group
Description: A somnopentyl injection five-fold diluted with physiological saline was intraperitoneally administered to a normal male SD (Sprague-Dawley) rat by 2.5 mL/kg, and the rat was given general anesthesia, followed by keeping the anesthetized state by inhalation of about 1 to 3% isoflurane. Then, the skin on each check was incised to remove the exorbital lacrimal gland, followed by suturation with a Michel suture clamp. In this test, an individual wherein reduction of tears was confirmed after 13 weeks from the removal of exorbital lacrimal gland was included as the experimental animal.
Half an hour after treatment of general anesthesia, Schirmer strip (1 mm×17 mm) was inserted to conjunctival sac of the lower eyelid of a rat, and then after 1 minute of the insertion, the wet part of the Schirmer strip was measured in increments of 0.5 mm. (N=14 or 16 eyes)
The quantity of tears was measured in a similar manner to Test 3. (N=10 eyes)
The following Tables 1 and 2 show incremental differences (mm/min) in Schirmer's test between the vehicle-instilled group and the ophthalmic-solution-instilled groups at 0.5 and 8 hours, respectively, after ocular instillation according to the results of Test 3 and Test 4. The symbol “-” in Tables 1 and 2 means not-performed.

[3] = test system: normal male cynomolgus monkeys; assay: Intraocular pressure test, twice daily repeated instillation, Test 5; format: in vivo, cynomolgus monkey; conditions: 20 μL/eye twice daily, Day 1, 7 and 14, FIG. 4
Description: Specifically, one drop of 0.4% oxybuprocaine hydrochloride ophthalmic solution (trade name: Benoxil (registered trademark) ophthalmic solution 0.4%) was instilled to the right eye so as to provide surface anesthesia, and then the intraocular pressure was measured three times with Mentor tonometer (applanation), followed by calculation of the average. (N=6 eyes)

[4] = test system: dry-eye model rat whose exorbital lacrimal gland is excised; assay: Tear film break-up time in dry-eye model rat, Test 6; format: in vivo; conditions: concentration of 0.00001% or more, 5 μL/eye, 0.5 and 2 hours after ocular instillation; FIG. 5
From the text: A male SD rat was given general anesthesia, the skin on each […] cheek was incised under the anesthetized state, and then the exorbital lacrimal gland was excised to prepare a dry-eye model rat whose exorbital lacrimal gland is excised.
Untreated normal rats were assigned to an untreated group, and dry-eye model rats whose exorbital lacrimal gland is excised were assigned to a vehicle group and each ophthalmic solution group, each group consisting of 6 rats. For each group, TBUT measurement tests were conducted.

Structure (SMILES)	Extension of TBUT [1]	Incremental difference in Schirmer's test at 0.5 hours after ocular instillation ([2]; 0.001% ophthalmic solution)	Incremental difference in Schirmer's test at 8 hours after ocular instillation ([2]; 0.001% ophthalmic solution, 8 hours)	Incremental difference in Schirmer's test at 0.5 hours after ocular instillation ([2]; 0.01% ophthalmic solution)	Incremental difference in Schirmer's test at 8 hours after ocular instillation ([2]; 0.01% ophthalmic solution, 8 hours)	Incremental difference in Schirmer's test at 0.5 hours after ocular instillation ([2]; 0.1% ophthalmic solution)	Incremental difference in Schirmer's test at 8 hours after ocular instillation ([2]; 0.1% ophthalmic solution, 8 hours)	Incremental difference in Schirmer's test at 0.5 hours after ocular instillation ([2]; 1% ophthalmic solution)	Incremental difference in Schirmer's test at 8 hours after ocular instillation ([2]; 1% ophthalmic solution, 8 hours)	Lacrimal secretion at 8 hours after ocular instillation ([2]; 0.0001 to 0.01% instilled groups, 8 hours, FIG. 3)	Tear volumes at 16 hours after ocular instillation ([2]; 0.001 and 0.01% instilled groups, 16 hours, FIG. 3)	Lacrimal secretion ([2]; olodaterol-instilled groups 0.00001 to 0.01%, FIG. 3)	Effect on intraocular pressure ([3]; 0.01% ophthalmic solution)	Effect on intraocular pressure ([3]; 0.1% ophthalmic solution)	TBUT-extending effect [4]	TBUT-extending effect ([1]; 0.0001, 0.001, 0.01% (w/v), single ocular instillation 20 μL/eye, 15, 30, 60 minutes, FIG. 1)
CC(C)(C)NCC(O)c1cc(Cl)c(N)c(Cl)c1 (centres unmarked) [clenbuterol]	not confirmed	–	–	–	–	–	–	–	–	–	–	–	–	–	–	–
CC(Cc1ccc(O)cc1)NCC(O)c1cc(O)cc(O)c1 (centres unmarked) [fenoterol]	not confirmed	1.8 mm/min	0.0 mm/min	4.8 mm/min	0.2 mm/min	6.1 mm/min	0.9 mm/min	3.6 mm/min	1.1 mm/min	–	–	–	–	–	–	–
COc1ccc(CC(C)(C)NC[C@H](O)c2cc(O)cc3c2OCC(=O)N3)cc1 [olodaterol, 6-hydroxy-8-((1R)-1-hydroxy-2-{[2-(4-methoxyphenyl)-1,1-dimethylethyl]amino}&shy;ethyl)-2H-1,4-benzoxazin-3-(4H)-one]	–	–	–	–	–	–	–	–	–	highly enhanced	increase of tear volumes was observed	lacrimal secretion was enhanced	did not show increase and/or decrease the intraocular pressure	did not show increase and/or decrease the intraocular pressure	TBUT-extending effect was confirmed	confirmed in a concentration-dependent manner
